Laboratory results reported in ChEMBL document CHEMBL1201862, “PubChem BioAssay data set” (2004).
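Where inhibition never reached the appropriate level, the endpoint shown equals the highest concentration tested. Otherwise, values were interpolated linearly from a five-concentration, 48-hour dose response in 96-well plates. The concentration for 50% growth inhibition is given as GI50.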 The source made the active and inactive calls. No stated cut-off is given here; in the data, active = GI50 up to about 1.1 µM and inactive = higher.

Experiments:
Assay in all cases: NCI tumour cell line growth inhibition, 48 h
786-0 = system: 786-0
A498 = system: A498
A549 = system: A549
ACHN = system: ACHN
BT-549 = system: BT-549
CAKI-1 = system: CAKI-1
CCRF-CEM = system: CCRF-CEM
COLO 205 = system: COLO 205
DU-145 = system: DU-145
EKVX = system: EKVX
HCT-116 = system: HCT-116
HCT-15 = system: HCT-15
HL-60 = system: HL-60
HOP-62 = system: HOP-62
HOP-92 = system: HOP-92
HT-29 = system: HT-29
Hs-578T = system: Hs-578T
IGROV-1 = system: IGROV-1
K562 = system: K562
KM12 = system: KM12
LOX IMVI = system: LOX IMVI
M14 = system: M14
MCF7 = system: MCF7
MDA-MB-231 = system: MDA-MB-231
MDA-MB-435 = system: MDA-MB-435
MDA-N = system: MDA-N
MOLT-4 = system: MOLT-4
Malme-3M = system: Malme-3M
NCI-H226 = system: NCI-H226
NCI-H23 = system: NCI-H23
NCI-H460 = system: NCI-H460
NCI-H522 = system: NCI-H522
NCI/ADR-RES = system: NCI/ADR-RES
OVCAR-3 = system: OVCAR-3
OVCAR-4 = system: OVCAR-4
OVCAR-5 = system: OVCAR-5
OVCAR-8 = system: OVCAR-8
PC-3 = system: PC-3
RPMI-8226 = system: RPMI-8226
RXF 393 = system: RXF 393
SF-268 = system: SF-268
SF-295 = system: SF-295
SF-539 = system: SF-539
SK-MEL-28 = system: SK-MEL-28
SK-MEL-2 = system: SK-MEL-2
SK-MEL-5 = system: SK-MEL-5
SK-OV-3 = system: SK-OV-3
SN12C = system: SN12C
SNB-19 = system: SNB-19
SNB-75 = system: SNB-75
SR = system: SR
SW-620 = system: SW-620
T47D = system: T47D
TK-10 = system: TK-10
U-251 = system: U-251
UACC-62 = system: UACC-62
UO-31 = system: UO-31
UACC-257 = system: UACC-257

## OCCCNCc1ccncc1
786-0
  GI50: > 100 µM (inactive)
A498
  GI50: > 100 µM (inactive)
A549
  GI50: > 100 µM (inactive)
ACHN
  GI50: > 100 µM (inactive)
BT-549
  GI50: > 100 µM (inactive)
CAKI-1
  GI50: > 100 µM (inactive)
CCRF-CEM
  GI50: > 100 µM (inactive)
COLO 205
  GI50: > 100 µM (inactive)
DU-145
  GI50: > 100 µM (inactive)
EKVX
  GI50: > 100 µM (inactive)
HCT-116
  GI50: > 100 µM (inactive)
HCT-15
  GI50: > 100 µM
HL-60
  GI50: > 100 µM (inactive)
HOP-62
  GI50: > 100 µM (inactive)
HOP-92
  GI50: > 100 µM (inactive)
HT-29
  GI50: > 100 µM (inactive)
Hs-578T
  GI50: > 100 µM (inactive)
IGROV-1
  GI50: > 100 µM (inactive)
K562
  GI50: > 100 µM (inactive)
KM12
  GI50: > 100 µM (inactive)
LOX IMVI
  GI50: > 100 µM (inactive)
M14
  GI50: > 100 µM (inactive)
MCF7
  GI50: > 100 µM (inactive)
MDA-MB-231
  GI50: > 100 µM (inactive)
MDA-MB-435
  GI50: > 100 µM (inactive)
MDA-N
  GI50: > 100 µM (inactive)
MOLT-4
  GI50: > 100 µM (inactive)
Malme-3M
  GI50: > 100 µM (inactive)
NCI-H226
  GI50: > 100 µM (inactive)
NCI-H23
  GI50: > 100 µM (inactive)
NCI-H460
  GI50: > 100 µM (inactive)
NCI-H522
  GI50: > 100 µM (inactive)
NCI/ADR-RES
  GI50: > 100 µM (inactive)
OVCAR-3
  GI50: > 100 µM (inactive)
OVCAR-4
  GI50: > 100 µM (inactive)
OVCAR-5
  GI50: > 100 µM (inactive)
OVCAR-8
  GI50: > 100 µM (inactive)
PC-3
  GI50: > 100 µM (inactive)
RPMI-8226
  GI50: > 100 µM (inactive)
RXF 393
  GI50: > 100 µM (inactive)
SF-268
  GI50: > 100 µM (inactive)
SF-295
  GI50: > 100 µM (inactive)
SF-539
  GI50: > 100 µM (inactive)
SK-MEL-28
  GI50: > 100 µM (inactive)
SK-MEL-2
  GI50: > 100 µM (inactive)
SK-MEL-5
  GI50: > 100 µM (inactive)
SK-OV-3
  GI50: > 100 µM (inactive)
SN12C
  GI50: > 100 µM (inactive)
SNB-19
  GI50: > 100 µM (inactive)
SNB-75
  GI50: > 100 µM (inactive)
SR
  GI50: > 100 µM (inactive)
SW-620
  GI50: > 100 µM (inactive)
T47D
  GI50: > 100 µM (inactive)
TK-10
  GI50: > 100 µM (inactive)
U-251
  GI50: > 100 µM (inactive)
UACC-62
  GI50: > 100 µM (inactive)
UO-31
  GI50: > 100 µM (inactive)

## O=C1/C(=C/c2n[nH]cc2-c2ccc(Cl)cc2)C(=O)N(c2ccccc2)C1c1ccccc1 (configuration not stated)
786-0
  GI50: 17.2 µM (inactive)
A498
  GI50: 20.6 µM (inactive)
A549
  GI50: 25 µM (inactive)
ACHN
  GI50: 20.1 µM (inactive)
BT-549
  GI50: 14.6 µM (inactive)
CAKI-1
  GI50: 10.1 µM (inactive)
CCRF-CEM
  GI50: 17.6 µM (inactive)
COLO 205
  GI50: 14.2 µM (inactive)
DU-145
  GI50: 20.6 µM (inactive)
EKVX
  GI50: 20.7 µM (inactive)
HCT-116
  GI50: 12.5 µM (inactive)
HCT-15
  GI50: 15 µM
HL-60
  GI50: 12.9 µM (inactive)
HOP-62
  GI50: 17.4 µM (inactive)
HOP-92
  GI50: 23.4 µM (inactive)
HT-29
  GI50: 12.3 µM (inactive)
Hs-578T
  GI50: 9.4 µM (inactive)
IGROV-1
  GI50: 16.6 µM (inactive)
K562
  GI50: 8.41 µM (inactive)
KM12
  GI50: 20.9 µM (inactive)
LOX IMVI
  GI50: 14.3 µM (inactive)
M14
  GI50: 12.9 µM (inactive)
MCF7
  GI50: 25.9 µM (inactive)
MDA-MB-231
  GI50: 18.9 µM (inactive)
MDA-MB-435
  GI50: 14.9 µM (inactive)
MDA-N
  GI50: 14 µM (inactive)
MOLT-4
  GI50: 16.9 µM (inactive)
Malme-3M
  GI50: 22.9 µM (inactive)
NCI-H226
  GI50: 24.2 µM (inactive)
NCI-H23
  GI50: 13.3 µM (inactive)
NCI-H460
  GI50: 26.4 µM (inactive)
NCI-H522
  GI50: 7.74 µM (inactive)
NCI/ADR-RES
  GI50: 21.6 µM (inactive)
OVCAR-3
  GI50: 6.28 µM (inactive)
OVCAR-4
  GI50: 25.6 µM (inactive)
PC-3
  GI50: 6.92 µM (inactive)
RPMI-8226
  GI50: 13.7 µM (inactive)
RXF 393
  GI50: 14.3 µM (inactive)
SF-268
  GI50: 13.7 µM (inactive)
SF-295
  GI50: 18.4 µM (inactive)
SF-539
  GI50: 22.3 µM (inactive)
SK-MEL-28
  GI50: 17.7 µM (inactive)
SK-MEL-2
  GI50: 15.2 µM (inactive)
SK-MEL-5
  GI50: 13.8 µM (inactive)
SK-OV-3
  GI50: 15.5 µM (inactive)
SN12C
  GI50: 29.1 µM (inactive)
SNB-19
  GI50: 27.4 µM (inactive)
SR
  GI50: 11.8 µM (inactive)
SW-620
  GI50: 18.3 µM (inactive)
T47D
  GI50: 1.69 µM (inactive)
TK-10
  GI50: 27.5 µM (inactive)
U-251
  GI50: 19.9 µM (inactive)
UACC-257
  GI50: 19.7 µM (inactive)
UACC-62
  GI50: 11.5 µM (inactive)
UO-31
  GI50: 18.9 µM (inactive)
